Test results as given in US7592457B2 (Korea Research Institute of Chemical Technology, priority 2004, dated 2009).

What was measured:
[1] = target: T1, 5-HT7 (Homo sapiens, UniProt P34969); assay: Radioligand binding, 5-HT7 ([3H]LSD); conditions: read-out: Binding affinity (Inhibition rate % at 10 μM) 5HT7
T1 construct: purchased Euroscreen/BioSignal Packard Inc
Procedure: (§1) Radioligand bindings were performed according to the test method provided by the supplier of receptor membrane (Euroscreen/BioSignal Packard Inc.).

[2] = target: T2, human serotonin 5-HT6 receptor (Homo sapiens, UniProt P50406); assay: [3H]LSD binding at cloned 5-HT6 receptors; conditions: for IC50: [3H]LSD 1.87 nM, cloned receptor membranes, 37° C., 60 min, read-out: IC50; for inhibition at 10 µM: read-out: Binding affinity (Inhibition rate % at 10 μM) 5HT6
T2 construct: made in house; host or cells: Sf21 insect cells (pBacPAK8 baculovirus vector)

[3] = target: T3, hD3 receptor (Homo sapiens, UniProt P35462); assay: Radioligand binding, dopamine D3 ([3H]spiperone); conditions: read-out: Binding affinity (Inhibition rate % at 10 μM) D3
T3 construct: purchased BioSignal Packard Inc., Montreal, Canada
Procedure: (§2) The radioligands used were [^3H] spiperone (for hD2L and hD3 receptors, 1 nM) and [^3H] YM-09151-2 (for hD4.2 receptor, 0.06 nM). Radioligand bindings were performed by the protocols provided by the supplier of receptor membranes (BioSignal Packard Inc., Montreal, Canada). Briefly, the buffer used in D2 or D3 receptor binding assay was 50 mM Tris-HCl (pH 7.4), 10 mM MgCl2, 1 mM EDTA, or 50 mM Tris-HCl (pH 7.4), 5 mM MgCl2, 5 mM EDTA, 5 mM KCl, 1.5 mM CaCl2, 120 mM NaCl, respectively. In [^3H] YM-09151-2 receptor binding assays, the buffer containing 50 mM Tris-HCl (pH 7.4), 5 mM MgCl2, 5 mM EDTA, 5 mM KCl and 1.5 mM CaCl2 was used. Nonspecific binding was determined with haloperidol (10 μM) or clozapine (10 μM) for D2 and D3, and D4 receptors, respectively. Competition binding studies were carried out with 7-8 concentrations of the test compound run in duplicate tubes, and isotherms from three assays were calculated by computerized nonlinear regression analysis (GraphPad Prism Program, San Diego, […]) to yield median inhibitory concentration (IC50) values.

[4] = target: T4, 5-HT1a (Homo sapiens, UniProt P08908); assay: Radioligand binding, 5-HT1a ([3H]8-OH-DPAT); conditions: read-out: Binding affinity (Inhibition rate % at 10 μM) 5HT1a
T4 construct: purchased Euroscreen/BioSignal Packard Inc
T4 sequence (P08908 1-422): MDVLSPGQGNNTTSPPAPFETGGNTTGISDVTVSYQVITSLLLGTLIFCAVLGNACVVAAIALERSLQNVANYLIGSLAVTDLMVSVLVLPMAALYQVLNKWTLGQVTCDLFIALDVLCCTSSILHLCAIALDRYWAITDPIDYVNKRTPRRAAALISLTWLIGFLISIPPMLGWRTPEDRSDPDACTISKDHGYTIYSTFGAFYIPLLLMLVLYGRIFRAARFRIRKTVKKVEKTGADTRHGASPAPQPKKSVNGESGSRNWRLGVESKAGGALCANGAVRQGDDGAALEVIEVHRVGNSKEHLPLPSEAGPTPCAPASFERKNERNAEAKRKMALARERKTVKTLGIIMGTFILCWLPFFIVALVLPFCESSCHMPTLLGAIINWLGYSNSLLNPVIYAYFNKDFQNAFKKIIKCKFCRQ
Procedure: as §1

[5] = target: T5, 5-HT2c (Homo sapiens, UniProt P28335); assay: Radioligand binding, 5-HT2c ([3H]Mesulergine); conditions: read-out: Binding affinity (Inhibition rate % at 10 μM) 5HT2c
T5 construct: purchased Euroscreen/BioSignal Packard Inc
T5 sequence (P28335 33-458): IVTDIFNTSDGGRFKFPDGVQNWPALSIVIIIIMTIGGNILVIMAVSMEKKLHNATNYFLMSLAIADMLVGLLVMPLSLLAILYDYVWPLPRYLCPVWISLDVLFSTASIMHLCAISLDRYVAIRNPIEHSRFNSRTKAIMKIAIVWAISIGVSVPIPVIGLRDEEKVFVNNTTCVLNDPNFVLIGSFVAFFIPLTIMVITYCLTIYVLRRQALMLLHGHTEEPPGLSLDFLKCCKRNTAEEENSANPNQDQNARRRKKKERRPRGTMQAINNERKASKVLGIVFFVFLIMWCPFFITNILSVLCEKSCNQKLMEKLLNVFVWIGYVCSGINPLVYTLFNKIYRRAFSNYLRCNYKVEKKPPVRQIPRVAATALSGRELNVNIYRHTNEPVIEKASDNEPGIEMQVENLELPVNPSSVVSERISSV
Procedure: as §1

[6] = target: T6, hD2L receptor (Homo sapiens, UniProt P14416); assay: Radioligand binding, dopamine D2 ([3H]spiperone); conditions: read-out: Binding affinity (Inhibition rate % at 10 μM) D2
T6 construct: purchased BioSignal Packard Inc., Montreal, Canada
Procedure: as §2

[7] = target: D1 (Homo sapiens, UniProt P21728); assay: Radioligand binding for selectivity, D1; conditions: read-out: Binding affinity (Inhibition rate % at 10 μM) D1
[8] = target: T7, 5-HT2a (Homo sapiens, UniProt P28223); assay: Radioligand binding, 5-HT2a ([3H]Ketanserin); conditions: read-out: Binding affinity (Inhibition rate % at 10 μM) 5HT2a
T7 construct: purchased Euroscreen/BioSignal Packard Inc
Procedure: as §1

[9] = target: T8, hD4.2 receptor (Homo sapiens, UniProt P21917, DEL265-296); assay: Radioligand binding, dopamine D4 ([3H]YM-09151-2); conditions: read-out: Binding affinity (Inhibition rate % at 10 μM) D4
T8 construct: purchased BioSignal Packard Inc., Montreal, Canada
T8 sequence (P21917 with tags, fused parts or gaps DEL265-296): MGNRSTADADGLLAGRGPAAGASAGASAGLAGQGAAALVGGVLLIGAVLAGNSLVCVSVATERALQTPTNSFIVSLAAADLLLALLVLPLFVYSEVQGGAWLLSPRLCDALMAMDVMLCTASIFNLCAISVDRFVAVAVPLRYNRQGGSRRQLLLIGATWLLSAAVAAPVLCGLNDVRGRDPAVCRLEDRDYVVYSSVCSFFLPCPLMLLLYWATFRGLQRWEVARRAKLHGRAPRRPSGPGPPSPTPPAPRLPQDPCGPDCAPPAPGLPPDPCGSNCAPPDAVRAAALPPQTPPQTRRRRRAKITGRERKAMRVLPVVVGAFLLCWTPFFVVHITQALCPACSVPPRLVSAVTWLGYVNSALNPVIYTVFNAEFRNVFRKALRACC
Procedure: as §2

T7 sequence (P28223 whole entry): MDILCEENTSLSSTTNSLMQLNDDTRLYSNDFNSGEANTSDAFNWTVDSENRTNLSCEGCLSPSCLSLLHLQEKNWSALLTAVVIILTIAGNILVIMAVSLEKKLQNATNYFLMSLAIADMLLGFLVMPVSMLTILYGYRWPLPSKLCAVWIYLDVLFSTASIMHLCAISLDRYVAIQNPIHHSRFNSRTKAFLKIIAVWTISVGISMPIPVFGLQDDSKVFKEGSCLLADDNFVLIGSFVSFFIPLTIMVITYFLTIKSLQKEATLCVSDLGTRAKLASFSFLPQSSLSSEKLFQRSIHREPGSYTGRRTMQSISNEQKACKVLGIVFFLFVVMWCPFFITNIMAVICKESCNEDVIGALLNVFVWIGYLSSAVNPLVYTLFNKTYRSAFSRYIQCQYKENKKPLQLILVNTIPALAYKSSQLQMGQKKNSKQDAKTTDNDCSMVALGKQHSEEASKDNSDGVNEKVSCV
D1, sequence (P21728 whole entry): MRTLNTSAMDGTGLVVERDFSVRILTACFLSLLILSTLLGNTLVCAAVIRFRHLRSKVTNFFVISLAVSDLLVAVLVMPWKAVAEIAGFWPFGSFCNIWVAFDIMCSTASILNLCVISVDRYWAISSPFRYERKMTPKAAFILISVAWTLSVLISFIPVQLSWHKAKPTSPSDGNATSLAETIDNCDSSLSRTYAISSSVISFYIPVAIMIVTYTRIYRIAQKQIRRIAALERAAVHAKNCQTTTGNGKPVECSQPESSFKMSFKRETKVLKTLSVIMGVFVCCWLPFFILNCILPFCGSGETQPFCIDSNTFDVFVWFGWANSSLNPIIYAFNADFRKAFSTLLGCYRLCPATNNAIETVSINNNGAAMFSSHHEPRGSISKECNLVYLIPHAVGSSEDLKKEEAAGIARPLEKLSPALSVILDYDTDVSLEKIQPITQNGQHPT
T2 sequence (P50406 whole entry): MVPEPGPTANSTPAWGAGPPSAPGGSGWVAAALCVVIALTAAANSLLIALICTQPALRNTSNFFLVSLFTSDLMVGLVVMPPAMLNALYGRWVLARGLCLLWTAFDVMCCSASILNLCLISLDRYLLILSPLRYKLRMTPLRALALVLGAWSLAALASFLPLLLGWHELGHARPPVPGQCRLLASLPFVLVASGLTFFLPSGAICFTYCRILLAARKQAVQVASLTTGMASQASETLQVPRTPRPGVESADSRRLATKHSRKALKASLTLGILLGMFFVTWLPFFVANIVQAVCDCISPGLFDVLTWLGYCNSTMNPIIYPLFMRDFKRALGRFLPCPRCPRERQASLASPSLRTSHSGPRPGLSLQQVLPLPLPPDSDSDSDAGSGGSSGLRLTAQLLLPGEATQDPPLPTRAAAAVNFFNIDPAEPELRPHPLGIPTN
T1 sequence (P34969 whole entry): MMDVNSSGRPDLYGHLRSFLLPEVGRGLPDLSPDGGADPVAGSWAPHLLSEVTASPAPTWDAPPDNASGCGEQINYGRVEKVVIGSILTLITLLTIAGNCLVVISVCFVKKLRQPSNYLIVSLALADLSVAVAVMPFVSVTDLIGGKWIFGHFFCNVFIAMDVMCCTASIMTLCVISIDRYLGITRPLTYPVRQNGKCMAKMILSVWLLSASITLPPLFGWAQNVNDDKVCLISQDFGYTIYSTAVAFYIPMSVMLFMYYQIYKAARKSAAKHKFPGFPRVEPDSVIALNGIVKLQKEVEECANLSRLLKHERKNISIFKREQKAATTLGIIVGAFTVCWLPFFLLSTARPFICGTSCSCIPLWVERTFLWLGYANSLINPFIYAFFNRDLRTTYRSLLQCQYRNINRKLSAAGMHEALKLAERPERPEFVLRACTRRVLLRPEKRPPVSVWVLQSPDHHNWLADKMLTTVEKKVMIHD
T6 sequence (P14416 whole entry): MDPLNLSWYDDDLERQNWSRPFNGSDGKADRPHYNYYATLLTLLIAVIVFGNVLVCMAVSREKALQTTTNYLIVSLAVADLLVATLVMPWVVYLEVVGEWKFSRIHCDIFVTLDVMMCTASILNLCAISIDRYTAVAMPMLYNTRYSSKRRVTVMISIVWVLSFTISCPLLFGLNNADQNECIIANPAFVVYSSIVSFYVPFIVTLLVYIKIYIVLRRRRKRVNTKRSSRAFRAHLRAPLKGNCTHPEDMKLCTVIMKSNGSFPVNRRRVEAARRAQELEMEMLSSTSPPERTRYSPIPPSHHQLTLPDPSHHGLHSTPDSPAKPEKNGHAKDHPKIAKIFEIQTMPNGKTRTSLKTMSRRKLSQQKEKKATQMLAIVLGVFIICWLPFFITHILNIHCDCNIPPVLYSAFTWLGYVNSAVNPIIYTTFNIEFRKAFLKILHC
T3 sequence (P35462 whole entry): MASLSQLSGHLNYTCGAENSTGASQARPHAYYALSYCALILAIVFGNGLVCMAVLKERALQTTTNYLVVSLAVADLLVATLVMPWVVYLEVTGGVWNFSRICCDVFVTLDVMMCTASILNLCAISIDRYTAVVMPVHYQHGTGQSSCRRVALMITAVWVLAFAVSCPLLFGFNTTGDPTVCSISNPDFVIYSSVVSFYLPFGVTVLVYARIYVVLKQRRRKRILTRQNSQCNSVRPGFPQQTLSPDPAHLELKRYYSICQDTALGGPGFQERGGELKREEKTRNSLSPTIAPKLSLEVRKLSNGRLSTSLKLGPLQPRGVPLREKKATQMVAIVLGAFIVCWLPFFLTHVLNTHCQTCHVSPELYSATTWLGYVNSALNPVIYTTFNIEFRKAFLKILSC

Structure (SMILES) | melting point [°C] | inhibition at 10 µM [1] [%] | IC50 [2] [nM] | inhibition at 10 µM [2] [%] | inhibition at 10 µM [3] [%] | inhibition at 10 µM [4] [%] | inhibition at 10 µM [5] [%] | inhibition at 10 µM [6] [%] | inhibition at 10 µM [7] [%] | inhibition at 10 µM [8] [%] | inhibition at 10 µM [9] [%]
CC1(c2ccccc2)C(=O)Nc2ccccc2C1=O (stereo not drawn) [Example 2, 3-methyl-3-phenyl-1H-quinoline-2,4-dione] | 194 to 196 | 10.4 | 1080 | 73.2 | 12.2 | 15 | 30.6 | 5.6 | 10.2 | 8.4 | 0
CC1(c2ccccc2)C(=O)Nc2cc(Cl)ccc2C1=O (stereo not drawn) [Example 3, 7-chloro-3-methyl-3-phenyl-1H-quinoline-2,4-dione] | 174 to 175 | 7 | 2470 | 69 | 10.9 | 40.2 | 8.9 | 4.9 | 25.5 | 12 | 0
CC1(c2ccccc2)C(=O)Nc2cc(Br)cc(Br)c2C1=O (stereo not drawn) [Example 4, 5,7-dibromo-3-methyl-3-phenyl-1H-quinoline-2,4-dione] | 202 to 203 | 13 | 320 | 70.9 | 15.8 | 11.7 | 29.8 | 3 | 23.7 | 13.6 | 0
COc1cc(Cl)cc2c1C(=O)C(C)(c1ccccc1)C(=O)N2 (stereo not drawn) [Example 6, 7-chloro-5-methoxy-3-methyl-3-phenyl-1H-quinoline-2,4-dione] | 267 to 269 | 19.5 | 428 | 68.3 | 23 | 65.8 | 13.5 | 29.7 | 31.1 | 10.6 | 1.6
CC1(c2ccccc2)C(=O)Nc2cc(Cl)c(Cl)cc2C1=O (stereo not drawn) [Example 9, 6,7-dichloro-3-methyl-3-phenyl-1H-quinoline-2,4-dione] | 213 to 214 | 10.8 | 1060 | 71.2 | 10.8 | 45.2 | 30.4 | 8.2 | 26.2 | 16.6 | 0
CN(C)c1cc(Cl)c2c(c1)NC(=O)C(C)(c1ccccc1)C2=O (stereo not drawn) [Example 11, 5-chloro-7-dimethylamino-3-methyl-3-phenyl-1H-quinoline-2,4-dione] | 224 to 226 | 35.2 | 1160 | 70.7 | 20.5 | 49.5 | 20 | 19.3 | 40.5 | 30.4 | 0.4
CN1CCN(c2cc(Cl)c3c(c2)NC(=O)C(C)(c2ccc(O)cc2)C3=O)CC1 (stereo not drawn) [Example 47, 5-chloro-3-(4-hydroxy-phenyl)-3-methyl-7-(4-methyl-piperazine-1-yl)-1H-quinoline-2,4-dione] |  | 16.3 | 1060 | 71.9 | 14.2 | 27.1 | 12.4 | 27.2 | 20.9 | 42.8 | 12.8
CN1CCN(c2cc(Cl)c3c(c2)NC(=O)C(C)(c2ccc(N)cc2)C3=O)CC1 (stereo not drawn) [Example 48, 3-(4-amino-phenyl) -5-chloro-3-methyl-7-(4-methyl-piperazine-1-yl)-1H-quinoline-2,4-dione] |  | 5.6 | 1080 | 71.6 | 8.7 | 35 | 2.5 | 19.6 | 27.4 | 37.2 | 0
CN1CCN(c2cc(Cl)c3c(c2)NC(=O)C(C)(c2ccc([N+](=O)[O-])cc2)C3=O)CC1 (stereo not drawn) [Example 49, 5-chloro-3-methyl-7-(4-methyl-piperazine-1-yl)-3-(4-nitro-phenyl)-1H-quinoline-2,4-dione] |  | 24.4 | 1020 | 70.2 | 12.4 | 1.4 | 19.8 | 10.5 | 26 | 33.4 | 0
